Test results published in BigSolDB 2.1.

Q: With COC1=C(OC)C(=O)C(C/C=C(\C)CC/C=C(\C)CC/C=C(\C)CC/C=C(\C)CC/C=C(\C)CC/C=C(\C)CC/C=C(\C)CC/C=C(\C)CC/C=C(\C)CCC=C(C)C)=C(C)C1=O as the molecule, how does the solubility (mole fraction) (in ethanol, 270.15 K) read?
A: The solubility (mole fraction) was 1e-05.

Q: What about the solubility (mole fraction) (in ethanol, 280.15 K) of the same molecule?
A: Its solubility (mole fraction) is 1.1e-05.

Q: What about the solubility (mole fraction) (in ethanol, 290.15 K) of the same molecule?
A: Its solubility (mole fraction) is 1.6e-05.

Q: And the solubility (mole fraction) (in ethanol, 300.15 K)?
A: The solubility (mole fraction) was 6.1e-05.

Q: And the solubility (mole fraction) (in ethanol, 310.15 K)?
A: The solubility (mole fraction) was 0.0002.

Q: And the solubility (mole fraction) (in ethanol, 320.15 K)?
A: The solubility (mole fraction) was 0.0014.

Q: What about the solubility (mole fraction) (in ethyl acetate, 270.15 K) of the same molecule?
A: Its solubility (mole fraction) is 0.0006.

Q: And the solubility (mole fraction) (in ethyl acetate, 280.15 K)?
A: The solubility (mole fraction) was 0.0033.

Q: What about the solubility (mole fraction) (in ethyl acetate, 290.15 K) of the same molecule?
A: Its solubility (mole fraction) is 0.0178.

Q: What about the solubility (mole fraction) (in ethyl acetate, 300.15 K) of the same molecule?
A: Its solubility (mole fraction) is 0.09.

Q: And the solubility (mole fraction) (in ethyl acetate, 310.15 K)?
A: Its solubility (mole fraction) is 0.431.

Q: And the solubility (mole fraction) (in ethyl acetate, 320.15 K)?
A: Its solubility (mole fraction) is 0.647.

Q: And the solubility (mole fraction) (in isopropanol, 270.15 K)?
A: Its solubility (mole fraction) is 7e-06.

Q: What about the solubility (mole fraction) (in isopropanol, 280.15 K) of the same molecule?
A: Its solubility (mole fraction) is 8e-06.

Q: And the solubility (mole fraction) (in isopropanol, 290.15 K)?
A: The solubility (mole fraction) was 6.2e-05.

Q: What about the solubility (mole fraction) (in isopropanol, 300.15 K) of the same molecule?
A: Its solubility (mole fraction) is 0.0005.

Q: What about the solubility (mole fraction) (in isopropanol, 310.15 K) of the same molecule?
A: Its solubility (mole fraction) is 0.0029.

Q: And the solubility (mole fraction) (in isopropanol, 320.15 K)?
A: Its solubility (mole fraction) is 0.0165.

Q: What about the solubility (mole fraction) (in n-butanol, 270.15 K) of the same molecule?
A: Its solubility (mole fraction) is 1e-05.

Q: And the solubility (mole fraction) (in n-butanol, 280.15 K)?
A: The solubility (mole fraction) was 1.7e-05.

Q: And the solubility (mole fraction) (in n-butanol, 290.15 K)?
A: The solubility (mole fraction) was 0.0001.

Q: What about the solubility (mole fraction) (in n-butanol, 300.15 K) of the same molecule?
A: The solubility (mole fraction) was 0.0011.

Q: And the solubility (mole fraction) (in n-butanol, 310.15 K)?
A: The solubility (mole fraction) was 0.0107.

Q: And the solubility (mole fraction) (in n-butanol, 320.15 K)?
A: The solubility (mole fraction) was 0.0934.

Q: And the solubility (mole fraction) (in n-hexane, 270.15 K)?
A: Its solubility (mole fraction) is 0.0009.

Q: What about the solubility (mole fraction) (in n-hexane, 280.15 K) of the same molecule?
A: The solubility (mole fraction) was 0.0044.

Q: And the solubility (mole fraction) (in n-hexane, 290.15 K)?
A: Its solubility (mole fraction) is 0.0207.

Q: And the solubility (mole fraction) (in n-hexane, 300.15 K)?
A: Its solubility (mole fraction) is 0.0931.

Q: And the solubility (mole fraction) (in n-hexane, 310.15 K)?
A: Its solubility (mole fraction) is 0.399.

Q: And the solubility (mole fraction) (in n-hexane, 320.15 K)?
A: The solubility (mole fraction) was 0.55.

Q: And the solubility (mole fraction) (in n-propanol, 280.15 K)?
A: The solubility (mole fraction) was 0.0002.

Q: What about the solubility (mole fraction) (in n-propanol, 290.15 K) of the same molecule?
A: Its solubility (mole fraction) is 0.0005.

Q: And the solubility (mole fraction) (in n-propanol, 300.15 K)?
A: The solubility (mole fraction) was 0.0014.

Q: And the solubility (mole fraction) (in n-propanol, 310.15 K)?
A: The solubility (mole fraction) was 0.0039.

Q: And the solubility (mole fraction) (in n-propanol, 320.15 K)?
A: The solubility (mole fraction) was 0.011.
